Experimental findings from US6894047B2, “Triazine compounds useful as sorbitol dehydrogenase inhibitors” (Pfizer Inc., priority 2001, dated 2005) are described below.

Broadly, the melting point is the temperature of the solid-liquid transition.

The compound `Cc1nc(O)nc(N2C(C)CN(c3ncnc(C(C)O)n3)CC2C)n1` (stereo not drawn) [Example 15, 1-{4-[4-(4-Hydroxy-3-methyl-[1,3,5]triazin-2-yl)-3R,5S-dimethyl-piperazin-1-yl]-[1,3,5]triazin-2-yl}-ethanol] returned a melting point of 263 to 265 °C.

For the compound `CC1CN(c2ncnc(CO)n2)CC(C)N1c1ncnc(CO)n1` (stereo not drawn) [Example 11, 1-{4-[4-(4-Hydroxymethyl-[1,3,5]triazin-2-yl)-3R,5S-dimethyl-piperazin-1-yl]-[1,3,5]triazin-2-yl}-methanol], the melting point lay within 224 to 225 °C.

Consider `COc1nc(C)nc(N2C(C)CN(c3ncnc(CO)n3)CC2C)n1` (stereo not drawn) [Example 12, 1-{4-[4-(4-methoxy-6-methyl-[1,3,5]triazin-2-yl)-3R,5S-dimethyl-piperazin-1-yl]-[1,3,5]triazin-2-yl}-methanol], for which the melting point lay within 155 to 160 °C.

In turn, `CC1CN(c2ncnc(CO)n2)CC(C)N1c1ncnc(-c2ccccc2)n1` (stereo not drawn) [Example 10, 1-{4-[4-(4-phenyl-[1,3,5]triazin-2-yl)-3R,5S-dimethyl-piperazin-1-yl]-[1,3,5]triazin-2-yl}-methanol] showed a melting point of 206 to 207 °C.

With `CC(O)c1ncnc(N2CC(C)N(c3nc(O)nc(-c4ccccc4)n3)C(C)C2)n1` (stereo not drawn) [Example 14, 1-{4-[4-(4-Hydroxy-6-phenyl-[1,3,5]triazin-2-yl)-3R,5S-dimethyl-piperazin-1-yl]-[1,3,5]triazin-2-yl}-ethanol], the melting point was above 275 °C.

With `CC1CN(c2ncnc(-c3ccccc3)n2)CC(C)N1c1ncnc(CO)n1` (stereo not drawn) [Example 16, 1-{4-[4-(4-Phenyl-[1,3,5]triazin-2-yl)-2R,6S-dimethyl-piperazin-1-yl]-[1,3,5]triazin-2-yl}-methanol], the melting point lay within 197 to 198 °C.
